In patent publication US20160250208A1, “TREATING ORGAN-SPECIFIC T CELL MEDIATED AUTOIMMUNE DISEASES” (UNIVERSITY OF MASSACHUSETTS, priority 2013, published 2016):

Tests used:
[1] = tested on: Ctla4−/− mice; assay: Treatment of Ctla4−/− mice with ITK inhibitors (survival, T cell activation, LN size, tissue infiltration); type: in vivo, mouse; conditions: BMS509744 at 50 mg/kg, 10n at 1 mg/kg and 10 mg/kg, starting at 10 days of age; FIG. 5A
Protocol: Control mice (n=10) were injected with solvent alone. […] Data are representative of three experiments with 4-10 mice in each group per experiment.

[2] = molecular target: T1, ITK (Homo sapiens, UniProt Q08881); conditions: ATP-competitive; cited from earlier work
T1 sequence (Q08881 1-620): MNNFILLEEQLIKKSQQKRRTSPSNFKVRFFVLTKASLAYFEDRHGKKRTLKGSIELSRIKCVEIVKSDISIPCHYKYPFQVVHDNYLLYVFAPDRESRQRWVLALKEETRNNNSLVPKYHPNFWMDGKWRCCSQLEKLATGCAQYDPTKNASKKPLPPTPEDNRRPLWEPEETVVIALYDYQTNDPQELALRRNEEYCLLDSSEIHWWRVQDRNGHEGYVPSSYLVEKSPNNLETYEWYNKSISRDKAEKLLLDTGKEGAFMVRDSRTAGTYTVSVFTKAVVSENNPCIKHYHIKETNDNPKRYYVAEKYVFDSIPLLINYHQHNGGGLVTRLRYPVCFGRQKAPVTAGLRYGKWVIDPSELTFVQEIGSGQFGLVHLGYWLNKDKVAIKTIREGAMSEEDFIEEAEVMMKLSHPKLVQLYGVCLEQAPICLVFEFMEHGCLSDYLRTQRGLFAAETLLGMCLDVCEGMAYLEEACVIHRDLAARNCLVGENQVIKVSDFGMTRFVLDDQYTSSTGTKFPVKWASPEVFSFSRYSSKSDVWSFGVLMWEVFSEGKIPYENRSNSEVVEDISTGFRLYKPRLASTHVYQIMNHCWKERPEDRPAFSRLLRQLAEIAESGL

[3] = tested on: Fyn, IR, Lck, Btk; conditions: cited from earlier work
[4] = tested on: 14 other kinases; conditions: cited from earlier work
[5] = tested on: SVEC4-10 cells; assay: Trans-endothelial migration assay across SVEC4-10 endothelial cells; type: cell-based, mouse; conditions: DKO LN cells pre-activated with Ionomycin 2 μg/ml for 2 hours; FIG. 8F

Compound	lifespan of Ctla4−/− mice [1]	inhibition of ITK kinase activity [2]	inhibition of Fyn, IR, Lck, Btk [3]	activity against 14 other kinases [4]	frequency of DKO T cells migrating across the endothelium [5]
COc1cc(C)c(Sc2cnc(NC(=O)c3ccc(CNC(C)C(C)(C)C)cc3)s2)cc1C(=O)N1CCN(C(C)=O)CC1 (centres unmarked) [BMS509744]	significantly increased their lifespan	potently inhibits ITK kinase activity	only at high concentrations	little or no activity	–
C[C@H](CCC(=O)O)C[C@H](C)C[C@H](C)C(=O)/C=C(\O)[C@H](C)C[C@H](C)C/C=C/[C@@H](C)[C@@H](O)[C@@H](C)[C@@H](O)C[C@@H]1CC[C@@](C)([C@H]2CC[C@@](C)([C@@H](C)O)O2)O1 [Ionomycin]	–	–	–	–	increased the frequency of DKO T cells that were able to migrate across the endothelium
